# Source: US4598070A, “Tripamide and cyclodextrin inclusion compound” (Eisai Co., Ltd., priority 1983, dated 1986)
# Where two headings read alike, the source gives them in different places.
# Assay: Solubility of tripamide in water, Liquid I or Liquid II of the Japanese Pharmacopeia (37° C., 5 days, absorbancy method)
# Format: physicochemical
# Details: for solubility at 120 h: 37° C., 5 days, as tripamide, Experiment 2
# Procedure: The inclusion compound prepared in accordance with the process described in Example 1 was used as a sample. This sample was prepared by the reaction of 1 mole of tripamide and 3 moles of β-cyclodextrin. For purpose of comparison, tripamide per se was used.
# The sample was accurately weighed 100 mg as tripamide and mixed with water, Liquid I of the Japanese Pharmacopeia or Liquid II of the Japanese Pharmacopeia. The mixture was stirred at 37° C. in a warm bath for 5 days. Tripamide, dissolved in the solution, was measured by the absorbancy method.
# That is, each of the tripamide solutions in water, Liquid I of the Japanese Pharmacopeia and Liquid II of the Japanese Pharmacopeia was filtered using a millipore filter of 1.2 μm and 1 ml each of the solutions after filtration was taken out. In the case of the solution using Liquid I of the Japanese Pharmacopeia, the solution was further diluted with Liquid I of the Japanese Pharmacopeia to make a 100 ml solution and 5 ml taken out of the resulting solution was further diluted to 50 ml with a 0.1N hydrochloric acid-methanol solution followed by measurement at 244 nm. In the case of each of the solutions in water and Liquid II of the Japanese Pharmacopeia, the solution was diluted to 100 ml with Liquid II of the Japanese Pharmacopeia followed by measurement at 233 nm. […]
structure (smiles),measurement,setting,value
"NS(=O)(=O)c1cc(C(=O)NN2C[C@@H]3[C@@H]4CC[C@@H](C4)[C@@H]3C2)ccc1Cl [Tripamide, N-(4-A2a-endo-tricyclo[5.2.1.0^2.6. ]decan-4-yl)-4-chloro-3-sulfamoylbenzamide]",solubility at 120 h,"Water, read-out: Solubility (mg/ml), Water",0.0094 mg/mL
same,solubility at 120 h,"jp liquid i, pH 1.2, Liquid I of the Japanese Pharmacopeia, pH about 1.2, read-out: Solubility (mg/ml), Japanese Pharmacopeia Liquid I",0.349 mg/mL
same,solubility at 120 h,"jp liquid ii, pH 7.5, Liquid II of the Japanese Pharmacopeia, pH about 7.5, read-out: Solubility (mg/ml), Japanese Pharmacopeia Liquid II",0.0144 mg/mL
same,"solubility in water, Liquid I and Liquid II (in words)","water, Liquid I and Liquid II of the Japanese Pharmacopoeia, sample for comparison",low
same,solubility in water (in words),"water, background statement",soluble in water only with extreme difficulty
